# Source: US11857596B2, “Animal feed additive and animal feed” (priority 2018, dated 2024)
# Where two headings read alike, the source gives them in different places. Residues, ends and D or L forms follow the SMILES beside them.
# What was measured:
# [1] = tested on: Caco-2 cells (human intestinal epithelial cells); assay: Membrane strengthening experiment (TER recovery of barrier function after TNF-α); type: cell-based; conditions: for Recovery ratio/ctr: comparison value with Ctr (TNFα alone)
# [2] = tested on: Lactobacillus acidophilus AJ13778; assay: Minimum inhibitory concentration, spot-on-lawn method; type: cell-based
# [3] = tested on: Enterococcus faecalis AJ110149; assay: as above; type: cell-based
# [4] = tested on: Bifidobacterium thermophilum AJ110569; assay: as above; type: cell-based
# Escherichia coli MG1665 = assay: as above; type: cell-based; conditions: for MIC: Escherichia coli, MG1665, read-out: Minimum inhibitory concentration
# [5] = tested on: Lactobacillus salivarius AJ110152; assay: as above; type: cell-based; conditions: for MIC: Ligilactobacillus salivarius
# [6] = tested on: Clostridium perfringens AJ3350; assay: microbe, parasite or virus in culture; type: cell-based; conditions: for MIC: Clostridium perfringens, AJ3350, read-out: Minimum inhibitory concentration
# [7] = tested on: Salmonella enterica AJ2785; assay: microbe, parasite or virus in culture; type: cell-based; conditions: for MIC: Salmonella enterica, AJ2785, read-out: Minimum inhibitory concentration
# [8] = Chicken growth test (body weight gain and feed conversion ratio); type: in vivo, broiler chickens
# [9] = Metabolome analysis of intestinal tract contents and blood; type: in vivo, chickens; conditions: in vivo
# Description: It is thus considered that coated-Phe and coated-Tyr are assimilated by intestinal bacteria in feces and rapidly metabolized in blood.
# [10] = tested on: Bacteroides fragilis JCM11019; assay: Minimum inhibitory concentration, spot-on-lawn method; type: cell-based
# [11] = Homo sapiens, Caco-2, 24 h, read-out: Recovery ratio (%)
# [12] = indicator strain Lactobacillus acidophilus AJ13778, MRS, 37° C., read-out: Minimum inhibitory concentration
# [13] = indicator strain Bifidobacterium thermophilum AJ110569, GAM, 37° C., read-out: Minimum inhibitory concentration
# [14] = indicator strain Lactobacillus salivarius AJ110152, MRS, 37° C., read-out: Minimum inhibitory concentration
# [15] = Table 4, 0-3 weeks, addition 200 ppm (core material) in feed
compound,measurement,setting,value
"N[C@@H](Cc1c[nH]c2ccccc12)C(=O)O [Tryptophan, tryptophan]",activity at 4000 µM,[1]; [11],128%
same,Recovery ratio/ctr,"[1]; material conc. 4 mM, 24 h",1.11
CC[C@@]1([C@@H]2O[C@@H]([C@H]3O[C@@](O)(CO)[C@H](C)C[C@@H]3C)C[C@@H]2C)CC[C@H]([C@]2(C)CC[C@]3(C[C@H](O)[C@@H](C)[C@@H]([C@@H](C)[C@@H](OC)[C@H](C)C(=O)O)O3)O2)O1 [Monensin],MIC,[2]; [12],2000 µg/mL
same,activity at 1 µM,"[1]; Homo sapiens, Caco-2, material conc. 1 uM, TER barrier function recovery, 24 h, read-out: Recovery ratio (%)",126%
same,Recovery ratio/ctr,"[1]; material conc. 1 uM, 24 h",1.13
same,MIC,"[3]; indicator strain Enterococcus faecalis AJ110149, MRS, 30° C., ND = no effect detected, read-out: Minimum inhibitory concentration",2000 µg/mL
same,MIC,[4]; [13],2000 µg/mL
same,MIC,Escherichia coli MG1665,> 100000 µg/mL
same,MIC,[5]; [14],1000 µg/mL
same,MIC,[6],1000 µg/mL
same,MIC,[7],> 100000 µg/mL
"N[C@@H](Cc1ccccc1)C(=O)O [Phe, phenylalanine]",BWG,[8]; [15],106%
same,FCR,[8]; [15],98%
same,body weight gain effect and feed conversion ratio improvement effect,"[8]; result in words, healthy broilers, 0 to 21 days of age",A certain degree of body weight gain effect was confirmed
same,detection in the intestinal tract contents or blood,[9],not detected
Zinc Bacitracin,Recovery ratio (%),"[1]; material conc. 10 uM, TER barrier function recovery, 24 h",124%
same,Recovery ratio/ctr,"[1]; material conc. 10 uM, 24 h, 1.1 or more = membrane-strengthening ability",1.10
Colistin,Minimum inhibitory concentration,"[2]; indicator strain Lactobacillus acidophilus AJ13778, MRS, 37° C.",>100000 µg/mL
same,Recovery ratio (%),"[1]; material conc. 1 uM, TER barrier function recovery, 24 h",130%
same,Recovery ratio/ctr,"[1]; material conc. 1 uM, 24 h",1.13
same,function of strengthening the barrier function (membrane-strengthening ability),"[1]; result in words, FIG. 1A-1H",had a function of strengthening the barrier function even at a low concentration
same,Minimum inhibitory concentration,"[3]; indicator strain Enterococcus faecalis AJ110149, MRS, 30° C., ND = no effect detected",>100000 µg/mL
same,Minimum inhibitory concentration,"[10]; indicator strain Bacteroides fragilis JCM11019, GAM, 37° C.",>100000 µg/mL
same,Minimum inhibitory concentration,"[4]; indicator strain Bifidobacterium thermophilum AJ110569, GAM, 37° C.",128000 µg/mL
same,Minimum inhibitory concentration,"Escherichia coli MG1665; indicator strain Escherichia coli MG1665, LB, 37° C.",4000 µg/mL
same,Minimum inhibitory concentration,"[5]; indicator strain Lactobacillus salivarius AJ110152, MRS, 37° C.",>100000 µg/mL
same,Minimum inhibitory concentration,"[6]; indicator strain Clostridium perfringens AJ3350, GAM, 37° C.",>100000 µg/mL
same,Minimum inhibitory concentration,[7],>100000 µg/mL
CC[C@@H](C(=O)[C@@H](C)[C@@H](O)[C@H](C)[C@@H]1O[C@@H]([C@@H](CC)C(=O)O)CC[C@@H]1C)[C@H]1O[C@]2(C=C[C@@H](O)[C@]3(CC[C@@](C)([C@H]4CC[C@](O)(CC)[C@H](C)O4)O3)O2)[C@H](C)C[C@@H]1C [Salinomycin],MIC,"[2]; Lactobacillus acidophilus, AJ13778, read-out: Minimum inhibitory concentration",2000 µg/mL
same,activity at 1 µM,[1]; [11],124%
same,Recovery ratio/ctr,"[1]; material conc. 1 uM, 24 h",1.10
same,MIC,"[3]; Enterococcus faecalis, AJ110149, read-out: Minimum inhibitory concentration",500 µg/mL
same,MIC,"[10]; Bacteroides fragilis, JCM11019, read-out: Minimum inhibitory concentration",64000 µg/mL
same,MIC,"[4]; Bifidobacterium thermophilum, AJ110569, read-out: Minimum inhibitory concentration",2000 µg/mL
same,MIC,Escherichia coli MG1665,> 100000 µg/mL
same,MIC,"[5]; AJ110152, read-out: Minimum inhibitory concentration",1000 µg/mL
same,MIC,[6],1000 µg/mL
same,MIC,[7],> 100000 µg/mL
"CC[C@H](C)[C@H](N)C1=N[C@H](C(=O)N[C@@H](CC(C)C)C(=O)N[C@H](CCC(=O)O)C(=O)N[C@H](C(=O)N[C@H]2CCCCNC(=O)[C@H](CC(N)=O)NC(=O)[C@@H](CC(=O)O)NC(=O)[C@H](Cc3cnc[nH]3)NC(=O)[C@@H](Cc3ccccc3)NC(=O)[C@H]([C@@H](C)CC)NC(=O)[C@@H](CCCN)NC2=O)[C@@H](C)CC)CS1 [Bacitracin] (HELM PEPTIDE1{[CC[C@H](C)[C@H](N)C1=N[C@H](C(=O)[*:2])CS1].L.[dE].I.K.[NCCC[C@@H](N[*:1])C(=O)[*:2]].I.[dF].H.[dD].N}$PEPTIDE1,PEPTIDE1,5:R3-11:R2$$$V2.0)",MIC,[2]; [12],32000 µg/mL
same,MIC,"[10]; indicator strain Bacteroides fragilis JCM11019, GAM, 37° C., read-out: Minimum inhibitory concentration",> 100000 µg/mL
same,MIC,[4]; [13],4000 µg/mL
same,MIC,Escherichia coli MG1665,> 100000 µg/mL
same,MIC,[5]; [14],32000 µg/mL
same,MIC,[7],> 100000 µg/mL
"NC(=O)CC[C@H](N)C(=O)O [Glutamine, glutamine]",activity at 20000 µM,"[1]; Homo sapiens, Caco-2, material conc. 20 mM, TER barrier function recovery, 24 h, read-out: Recovery ratio (%)",136%
same,Recovery ratio/ctr,"[1]; material conc. 20 mM, 24 h",1.18
